In US20110053897A1 (IRM LLC, priority 2009, published 2011):
pIC50: −log10 of the molar value. Like-named read-outs stand apart in the source and are kept apart here.

Biological target: T1, Syk kinase (Homo sapiens, UniProt P43405)
T1 construct: purchased
Assay: Syk kinase inhibition, Caliper LabChip off-chip mobility-shift kinase assay
Type: biochemical
Details: read-out: Syk Enzyme IC50
In short: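 Purified Syk pre-incubated 15 min with compound in 100 mM HEPES pH 7.5, 1 mM DTT, 10 mM MgCl2 or MnCl2, 0.002% Brij-35, then 1.5 μM fluorescein peptide and ATP at apparent KM added; 1–1.5 h at room temperature, 4% DMSO, EDTA stop. Microfluidic mobility-shift product/substrate conversion gave % inhibition; IC50 from 12-point series (10–0.00003 μM) by 4-parameter fit.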

| SMILES | pIC50 (Caliper LabChip assay) | pIC50 |
| --- | --- | --- |
| CC(=O)c1cc(Nc2cc3ccn(CCO)c(=O)c3c(NC(C)(C)C)n2)ncn1 [compound 633, 6-(6-acetylpyrimidin-4-ylamino)-8-(tert-butylamino)-2-(2-hydroxyethyl)-2,7-naphthyridin-1(2H)-one] | 6.56 | – |
| CC(O)c1ccnc(Nc2cc3ccn(CCO)c(=O)c3c(NC3(C)CCC3)n2)c1 (stereo not shown) [compound 718] | 7.96 | – |
| O=c1c2c(N[C@H]3CC[C@@H](O)CC3)nc(Nc3cnccn3)cc2ccn1CC(F)F [compound 1022] | 7.96 | – |
| COc1cncc(-c2cc3cc[nH]c(=O)c3c(Nc3ccc(C4CCN(CCC(=O)N(C)C)CC4)c(C)c3)n2)n1 [compound 159] | – | 7.42 |
| CC(C)(C)Nc1nc(-c2cnc(N)nc2)cc2cc[nH]c(=O)c12 [compound 455] | – | 7.23 |
| Cc1ccnc(Nc2cc3cc[nH]c(=O)c3c(N3CC[C@H](CO)C3)n2)c1 [compound 400] | – | 6.05 |
| COc1cncc(-c2cc3cc[nH]c(=O)c3c(Nc3ccc(CCN4CCN(C(C)C)CC4)cc3)n2)n1 [compound 21] | – | 7.07 |
| Cc1ccnc(Nc2cc3cc[nH]c(=O)c3c(NC3CNC3)n2)c1 [compound 300] | – | 5.81 |
| CC(C)CNc1nc(-c2cnc(N)nc2)cc2cc[nH]c(=O)c12 [compound 186] | – | 6.75 |
| CC(C)(C)Nc1nc(Nc2cc(-c3nc(CO)cs3)ccn2)cc2ccn(CCO)c(=O)c12 [compound 843] | 7.09 | – |
| Cc1ccnc(Nc2cc3ccn(C)c(=O)c3c(N[C@H]3CCOC3)n2)c1 [compound 325] | – | 7.24 |
| CC1(Nc2nc(-c3cnc(N)nc3)cc3ccn(CCO)c(=O)c23)CCC1 [compound 907] | > 9.07 | – |
| CC(C)Nc1nc(Nc2cc(N3CCC(O)CC3)ccn2)cc2ccn(CCO)c(=O)c12 [compound 852] | 6.52 | – |
| CCN1CCN(CCc2ccc(Nc3nc(-c4cnn(C)c4)cc4c(F)c[nH]c(=O)c34)cc2)CC1 [compound 442] | – | 6.97 |
| CCn1ccc2cc(Nc3cnccn3)nc(NC3(CO)CC3)c2c1=O [compound 797] | 6.97 | – |
| CCn1ccc2cc(Nc3cnccn3)nc(N[C@H]3CC[C@@H](O)CC3)c2c1=O [compound 356] | – | 8.00 |

| SMILES | pIC50 (Caliper LabChip assay) | pIC50 |
| --- | --- | --- |
| CC1(Nc2nc(Nc3cc(C(C)(C)O)ccn3)cc3ccn(CC(N)=O)c(=O)c23)CCC1 [compound 722] | 6.81 | – |
| CC(C)(C)Nc1nc(Nc2cc(-c3ccncc3)ccn2)cc2ccn(CCO)c(=O)c12 [compound 842] | 7.29 | – |
| CCN1CCN(CCc2ccc(Nc3nc(Nc4ccc(F)cn4)cc4cc[nH]c(=O)c34)cc2)CC1 [compound 580] | – | 6.79 |
| CCn1ccc2cc(Nc3cc(C)ccn3)nc(N[C@H]3CCC[C@H]3O)c2c1=O (racemic) [compound 360] | – | 7.17 |
| Nc1ncc(-c2cc3ccn(CCO)c(=O)c3c(NC3(CO)CCC3)n2)cn1 [compound 903] | 7.59 | – |
| CCN1CCN(Cc2n[nH]c3cc(Nc4nc(-c5cnc(OC)nc5)cc5cc[nH]c(=O)c45)ccc23)CC1 [compound 204] | – | 7.32 |
| C[C@H](CO)Nc1nc(Nc2ccccn2)cc2cc[nH]c(=O)c12 [compound 299] | – | 7.17 |
| Cc1ccnc(Nc2cc3cc[nH]c(=O)c3c(N[C@H]3CCC[C@H]3O)n2)c1 (racemic) [compound 271] | – | 7.59 |
| Cc1ccnc(Nc2cc3cc[nH]c(=O)c3c(Nc3ccc(N4CCOCC4)cc3)n2)c1 [compound 480] | – | 7.82 |
| C[C@@H](CO)Nc1nc(Nc2cnccn2)cc2ccn(CCC#N)c(=O)c12 [compound 1003] | 7.57 | – |
| [2H]C([2H])([2H])n1ccc2cc(Nc3cc(Cl)ccn3)nc(N[C@@H](C)CO)c2c1=O [compound 403] | – | 7.22 |
| COc1cncc(-c2cc3cc[nH]c(=O)c3c(Nc3ccc4c(c3)C3CNCC4C3)n2)n1 (stereo not shown) [compound 96] | – | 5.78 |
| CCn1ccc2cc(Nc3cnccn3)nc(NC(C)(C)CCO)c2c1=O [compound 783] | 6.75 | – |
| COc1cncc(-c2cc3cc[nH]c(=O)c3c(Nc3ccc(C4CN(C(C)=O)C4)cc3)n2)n1 [compound 149] | – | 7.62 |
| COCCn1ccc2cc(-c3cnc(N)nc3)nc(NC(C)(C)C)c2c1=O [compound 910] | 7.52 | – |
